Source: patent US8470828B2, “Anellated pyridine compounds” (Hoffmann-La Roche Inc., priority 2010, dated 2013)
pKi: −log10 of the molar value.

Tests used:
human D3 receptor = human D3 receptor (Homo sapiens, UniProt P35462); assay: Radioligand binding to cloned human D3 receptor expressed in HEK-293 EBNA cells ([3H]-spiperone)
Description: (§1) HEK293 EBNA cells were transiently transfected with expression plasmids encoding for the human D2 or D3 or for the human 5-HT2A receptor, respectively. The cells were harvested 48 h post-transfection, washed three times with cold PBS and stored at −80° C. prior to use. The pellet was suspended in cold 50 mM Tris-HCl buffer comprising 10 mM EDTA (pH 7.4) and was homogenized with a Polytron (Kinematica A G, Basel, Switzerland) for 20-30 sec at 12.000 rpm. After centrifugation at 48.000×g for 30 min at 4° C., the pellet was resuspended in cold 10 mM Tris-HCl buffer comprising 0.1 mM EDTA (pH 7.4), homogenized, and centrifuged as above. This pellet was further resuspended in a smaller volume of ice cold 10 mM Tris-HCl buffer comprising 0.1 mM EDTA (pH 7.4) and homogenized with a Polytron for 20-30 sec at 12.000 rpm. The protein content of this homogenate was determined with the Bio-Rad (Bradford) Protein Assay (Biorad Laboratories GmbH, München, Germany) according to the instructions of the manufacturer using gamma globulin as the standard. This homogenate was stored at −80° C. in aliquots and thawed immediately prior to use.
(§2) Aliquots of membrane preparations were thawed at RT, resupended in assay buffer (D2, D3: 50 mM Tris-HCl, 120 mM NaCl, 5 mM MgCl2, 1 mM EDTA, 5 mM KCl, 1.5 mM CaCl2, pH=7.4; 5-HT2A: 50 mM Tris-HCl, 10 mM MgCl2, 1 mM EGTA, pH=7.4), homogenized with a Polytron for 20-30 sec at 12.000 rpm and adjusted to a final concentration of approximately 7.5 μg protein/well (D2, D3) and 15 μg protein/well (5-HT2A), respectively.
(§3) The binding affinity (Ki) of the compounds was determined using radioligand binding. Membranes were incubated in a total volume of 200 μl with a fixed concentration of radioligand (final concentration approximately 0.7 nM [^3H]-spiperone for D2, 0.5 nM [^3H]-spiperone for D3, and 1.1 nM [^3H]-ketanserin for 5-HT2A) and ten concentrations of test compound in ranging between 10 μM-0.1 nM for 1 h at RT. At the end of the incubation, the reaction mixtures were filtered on to unifilter 96-well white microplates with bonded GF/C filters (Packard BioScience, Zürich, Switzerland; preincubated for 1 h in 0.1% polyethylenimine (PEI) in assay buffer) with a Filtermate 196 harvester (Packard BioScience) and washed 3 times with cold assay buffer. The nonspecific binding was determined with equally composed reaction mixtures in the presence of 10 μM unlabelled spiperone. Per well 45 μl of Microscint 40 (Perkin Elmer, Schwerzenbach, Switzerland) was added, plates for sealed, shaken for 20 min and counted for 3 min on a Topcount Microplate Scintillation Counter (Can berra Packard S A, Zürich, Switzerland) with quenching correction.
(§4) The CPM value for each duplicate of a concentration of competing compound was averaged (y1), then the % specific binding was calculated according to the equation (((y1−non-specific)/(total binding−non-specific))×100). Graphs were plotted with the % specific binding using XLfit, a curve fitting program that iteratively plots the data using Levenberg-Marquardt algorithm. The single site competition analysis equation used was y=A+((B−A)/(1+((x/C)D))), where y is the % specific binding, A is the minimum y, B is the maximum y, C is the IC50, x is the log 10 of the concentration of the competing compound and D is the slope of the curve (the Hill Coefficient). […] The affinity constant (Ki) was calculated using the Cheng-Prusoff equation Ki=(IC50/1+([L]/Kd), where [L] is the concentration of radioligand and Kd is the dissociation constant of the radioligand at the receptor as determined by the saturation isotherm.

human D2 receptor = molecular target: T1, human D2 receptor (Homo sapiens, UniProt P14416); assay: Radioligand binding to cloned human D2 receptor expressed in HEK-293 EBNA cells ([3H]-spiperone); settings: HEK293 EBNA cell membranes, approximately 0.7 nM [3H]-spiperone, 1 h at RT
T1 construct: expressed in transfected cells; host or cells: HEK293 EBNA cells, transient transfection; membrane preparation
T1 sequence (P14416 whole entry): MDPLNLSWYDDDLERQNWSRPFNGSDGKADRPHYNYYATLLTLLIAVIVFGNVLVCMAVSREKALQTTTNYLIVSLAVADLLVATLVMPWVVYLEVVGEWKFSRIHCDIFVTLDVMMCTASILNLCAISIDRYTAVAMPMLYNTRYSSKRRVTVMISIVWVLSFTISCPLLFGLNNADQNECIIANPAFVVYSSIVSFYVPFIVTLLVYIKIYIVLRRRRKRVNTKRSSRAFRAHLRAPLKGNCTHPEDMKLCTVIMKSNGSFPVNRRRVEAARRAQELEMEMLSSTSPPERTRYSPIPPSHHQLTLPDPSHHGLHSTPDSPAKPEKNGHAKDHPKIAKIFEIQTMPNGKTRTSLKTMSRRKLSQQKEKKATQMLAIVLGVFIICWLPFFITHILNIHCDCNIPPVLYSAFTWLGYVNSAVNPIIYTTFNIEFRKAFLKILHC

human 5-HT2A receptor = human 5-HT2A receptor (Homo sapiens, UniProt P28223); assay: Radioligand binding to cloned human 5-HT2A receptor expressed in HEK-293 EBNA cells ([3H]-ketanserin)
Chain of human 5-HT2A receptor (P28223 whole entry): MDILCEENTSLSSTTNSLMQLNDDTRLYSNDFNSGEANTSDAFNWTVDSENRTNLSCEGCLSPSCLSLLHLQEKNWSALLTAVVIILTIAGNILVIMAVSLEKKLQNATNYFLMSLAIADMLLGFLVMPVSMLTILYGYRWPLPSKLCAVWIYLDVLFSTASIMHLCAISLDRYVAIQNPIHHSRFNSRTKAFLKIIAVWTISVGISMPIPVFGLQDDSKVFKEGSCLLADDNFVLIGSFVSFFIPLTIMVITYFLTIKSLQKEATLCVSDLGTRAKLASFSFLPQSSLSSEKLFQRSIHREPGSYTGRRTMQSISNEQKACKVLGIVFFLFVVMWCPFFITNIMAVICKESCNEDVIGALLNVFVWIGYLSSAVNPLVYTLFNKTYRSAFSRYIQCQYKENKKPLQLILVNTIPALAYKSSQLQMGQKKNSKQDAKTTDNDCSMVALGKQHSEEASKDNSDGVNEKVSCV
Description: as §1, §2, §3, §4

Chain of human D3 receptor (P35462 whole entry): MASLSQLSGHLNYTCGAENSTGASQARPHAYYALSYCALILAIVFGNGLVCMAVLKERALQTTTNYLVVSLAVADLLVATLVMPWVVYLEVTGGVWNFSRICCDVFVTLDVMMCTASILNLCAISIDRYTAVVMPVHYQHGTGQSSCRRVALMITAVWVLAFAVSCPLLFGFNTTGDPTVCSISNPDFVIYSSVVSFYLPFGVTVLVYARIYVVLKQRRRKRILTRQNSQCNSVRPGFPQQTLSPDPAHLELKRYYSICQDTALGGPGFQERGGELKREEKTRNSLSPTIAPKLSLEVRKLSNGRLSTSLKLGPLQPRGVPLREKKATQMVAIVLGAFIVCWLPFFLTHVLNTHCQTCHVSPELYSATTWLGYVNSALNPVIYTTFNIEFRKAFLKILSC

Structure (SMILES) | pKi (human D3 receptor) | melting point [°C] | pKi (human D2 receptor) | pKi (human 5-HT2A receptor)
O=C(N[C@H]1CC[C@H](CCN2CCN(c3nccc4c3OCC4)CC2)CC1)C(O)C(F)(F)F (mixture of isomers) [Example 58, trans-N-(4-{2-[4-(2,3-Dihydro-furo[2,3-c]pyridin-7-yl)-piperazin-1-yl]-ethyl}-cyclohexyl)-(RS)-3,3,3-trifluoro-2-hydroxy-propionamide] | 7.86 | 185 | 6.15 | 7.48
O=C(N[C@H]1CC[C@H](CCN2CCN(c3nccc4c3OCC4)CC2)CC1)C1(O)CC1 [Example 44, 1-Hydroxy-cyclopropanecarboxylic acid trans-(4-{2-[4-(2,3-dihydro-furo[2,3-c]pyridin-7-yl)-piperazin-1-yl]-ethyl}-cyclohexyl)-amide] | 7.77 | 248.5 | 6.10 | 8.00
CC#CC(=O)N[C@H]1CC[C@H](CCN2CCN(c3nccc4c3OCC4)CC2)CC1 [Example 86, But-2-ynoic acid trans-(4-{2-[4-(2,3-dihydro-furo[2,3-c]pyridin-7-yl)-piperazin-1-yl]-ethyl}-cyclohexyl)-amide] | 8.13 | 176 | 6.36 | 7.41
CS(=O)(=O)c1ccc(C(=O)N[C@H]2CC[C@H](CCN3CCN(c4nccc5c4OCC5)CC3)CC2)s1 [Example 81, 5-Methanesulfonyl-thiophene-2-carboxylic acid trans-(4-{2-[4-(2,3-dihydro-furo[2,3-c]pyridin-7-yl)-piperazin-1-yl]-ethyl}-cyclohexyl)-amide] | 7.91 | 212 | 6.44 | 7.72
CN1CCN(c2ccc(C(=O)N[C@H]3CC[C@H](CCN4CCN(c5nccc6c5OCC6)CC4)CC3)cc2)CC1 [Example 68, trans-N-(4-{2-[4-(2,3-Dihydro-furo[2,3-c]pyridin-7-yl)-piperazin-1-yl]-ethyl}-cyclohexyl)-4-(4-methyl-piperazin-1-yl)-benzamide] | 8.22 | 235.5 | 6.92 | 8.31
CO[C@H]1CC[C@H](CC(=O)N[C@H]2CC[C@H](CCN3CCN(c4nccc5c4OCC5)CC3)CC2)C1 [Example 52, trans-N-(4-{2-[4-(2,3-Dihydro-furo[2,3-c]pyridin-7-yl)-piperazin-1-yl]-ethyl}-cyclohexyl)-2-((1S,3S)-3-methoxy-cyclopentyl)-acetamide] | 7.87 | 199 | 6.02 | 7.36
CO[C@H]1CC[C@H](CC(=O)N[C@H]2CC[C@H](CCN3CCN(c4nccc5c4OCC5)CC3)CC2)CC1 [Example 92, trans-N-(4-{2-[4-(2,3-Dihydro-furo[2,3-c]pyridin-7-yl)-piperazin-1-yl]-ethyl}-cyclohexyl)-trans-2-(4-methoxy-cyclohexyl)-acetamide] | 7.91 | 188.5 | 5.76 | 7.27
O=C(N[C@H]1CC[C@H](CCN2CCN(c3nccc4c3OCC4)CC2)CC1)C1CCOCC1 [Example 7, trans-Tetrahydro-pyran-4-carboxylic acid (4-{2-[4-(2,3-dihydro-furo[2,3-c]pyridin-7-yl)-piperazin-1-yl]-ethyl}-cyclohexyl)-amide] | 7.88 | 236.5 | 6.45 | 7.81
CC(C)=CC(=O)N[C@H]1CC[C@H](CCN2CCN(c3nccc4c3OCC4)CC2)CC1 [Example 88, 3-Methyl-but-2-enoic acid trans-(4-{2-[4-(2,3-dihydro-furo[2,3-c]pyridin-7-yl)-piperazin-1-yl]-ethyl}-cyclohexyl)-amide] | 8.03 | 183.5 | 6.70 | 7.23
COCCC(=O)N[C@H]1CC[C@H](CCN2CCN(c3nccc4c3OCC4)CC2)CC1 [Example 9, trans-N-(4-{2-[4-(2,3-Dihydro-furo[2,3-c]pyridin-7-yl)-piperazin-1-yl]-ethyl}-cyclohexyl)-3-methoxy-propionamide] | 8.29 | 180 | 6.00 | 7.17
COCC(=O)N[C@H]1CC[C@H](CCN2CCN(c3nccc4ccoc34)CC2)CC1 [Example 16, trans-N-{4-[2-(4-Furo[2,3-c]pyridin-7-yl-piperazin-1-yl)-ethyl]-cyclohexyl}-2-methoxy-acetamide] | 7.75 | 132 | 5.91 | 8.00
O=C(CC1COCCO1)N[C@H]1CC[C@H](CCN2CCN(c3nccc4c3OCC4)CC2)CC1 (stereo partly drawn) [Example 19, trans-N-(4-{2-[4-(2,3-Dihydro-furo[2,3-c]pyridin-7-yl)-piperazin-1-yl]-ethyl}-cyclohexyl)-2-[1,4]dioxan-2-yl-acetamide] | 8.05 | 194.5 | 5.91 | 7.53
CC(C)CCC(=O)N[C@H]1CC[C@H](CCN2CCN(c3nccc4c3OCC4)CC2)CC1 [Example 42, trans-4-Methyl-pentanoic acid (4-{2-[4-(2,3-dihydro-furo[2,3-c]pyridin-7-yl)-piperazin-1-yl]-ethyl}-cyclohexyl)-amide] | 7.81 | 175 | 6.06 | 7.35
CN(C)C(=O)CCC(=O)N[C@H]1CC[C@H](CCN2CCN(c3nccc4c3OCC4)CC2)CC1 [Example 41, trans-N-(4-{2-[4-(2,3-Dihydro-furo[2,3-c]pyridin-7-yl)-piperazin-1-yl]-ethyl}-cyclohexyl)-N′,N′-dimethyl-succinamide] | 7.48 | 177.5 | 5.63 | 7.20
O=C(CC1COC1)N[C@H]1CC[C@H](CCN2CCN(c3nccc4c3OCC4)CC2)CC1 [Example 98, trans-N-(4-{2-[4-(2,3-Dihydro-furo[2,3-c]pyridin-7-yl)-piperazin-1-yl]-ethyl}-cyclohexyl)-2-oxetan-3-yl-acetamide] | 8.31 | 175 | 6.38 | 7.50
O=C(N[C@H]1CC[C@H](CCN2CCN(c3nccc4c3OCC4)CC2)CC1)C1CC1(F)F (stereo partly drawn) [Example 85, 2,2-Difluoro-cyclopropanecarboxylic acid trans-(4-{2-[4-(2,3-dihydro-furo[2,3-c]pyridin-7-yl)-piperazin-1-yl]-ethyl}-cyclohexyl)-amide] | 8.00 | 227 | 6.21 | 7.22
CC(C)(C)CC(=O)N[C@H]1CC[C@H](CCN2CCN(c3nccc4c3OCC4)CC2)CC1 [Example 89, trans-N-(4-{2-[4-(2,3-Dihydro-furo[2,3-c]pyridin-7-yl)-piperazin-1-yl]-ethyl}-cyclohexyl)-3,3-dimethyl-butyramide] | 7.82 | 193 | 6.36 | 7.23
O=C(N[C@H]1CC[C@H](CCN2CCN(c3nccc4c3OCC4)CC2)CC1)C1CCCOC1 (mixture of isomers) [Example 97, (RS)-Tetrahydro-pyran-3-carboxylic acid trans-(4-{2-[4-(2,3-dihydro-furo[2,3-c]pyridin-7-yl)-piperazin-1-yl]-ethyl}-cyclohexyl)-amide] | 7.64 | 203 | 6.22 | 7.56
O=C(N[C@H]1CC[C@H](CCN2CCN(c3nccc4c3OCC4)CC2)CC1)c1ccc(Cl)cc1 [Example 54, trans-4-Chloro-N-(4-{2-[4-(2,3-dihydro-furo[2,3-c]pyridin-7-yl)-piperazin-1-yl]-ethyl}-cyclohexyl)-benzamide] | 7.90 | 251.5 | 5.62 | 7.18
CCC(C)C(=O)N[C@H]1CC[C@H](CCN2CCN(c3nccc4c3OCC4)CC2)CC1 (mixture of isomers) [Example 83, trans-N-(4-{2-[4-(2,3-Dihydro-furo[2,3-c]pyridin-7-yl)-piperazin-1-yl]-ethyl}-cyclohexyl)-(RS)-2-methyl-butyramide] | 7.76 | 196.5 | 6.15 | 7.31
CC(C)(C)C(=O)N[C@H]1CC[C@H](CCN2CCN(c3nccc4c3OCC4)CC2)CC1 [Example 90, trans-N-(4-{2-[4-(2,3-Dihydro-furo[2,3-c]pyridin-7-yl)-piperazin-1-yl]-ethyl}-cyclohexyl)-2,2-dimethyl-propionamide] | 7.30 | 194.5 | 6.17 | 7.31
O=C(CC1COCCO1)N[C@H]1CC[C@H](CCN2CCN(c3nccc4ccoc34)CC2)CC1 (mixture of isomers) [Example 15, trans-2-rac-[1,4]Dioxan-2-yl-N-{4-[2-(4-furo[2,3-c]pyridin-7-yl-piperazin-1-yl)-ethyl]-cyclohexyl}-acetamide] | 8.03 | 193 | 6.01 | 8.09
O=C(N[C@H]1CC[C@H](CCN2CCN(c3nccc4c3OCC4)CC2)CC1)c1cnc(N2CCOCC2)cn1 [Example 78, 5-Morpholin-4-yl-pyrazine-2-carboxylic acid trans-(4-{2-[4-(2,3-dihydro-furo[2,3-c]pyridin-7-yl)-piperazin-1-yl]-ethyl}-cyclohexyl)-amide] | 7.37 | 200.5 | 6.17 | 7.53
COCCC(=O)N[C@H]1CC[C@H](CCN2CCN(c3nccc4ccoc34)CC2)CC1 [Example 13, trans-N-{4-[2-(4-Furo[2,3-c]pyridin-7-yl-piperazin-1-yl)-ethyl]-cyclohexyl}-3-methoxy-propionamide] | 8.11 | 146 | 5.95 | 7.68
